# Data published in patent US8106092B2, “Treatment of solid cancers” (priority 2004, dated 2012).
# Columns and labels:
# [1] = system: SIINFEKL [SEQ ID NO:2]-specific CD8^+ T-cells; assay: SIINFEKL-specific CD8+ T-cells by IFNγ ELISPOT after i.t. PEP005 treatment of Lewis lung-OVA; type: in vivo, C57BL/6 mice
# Procedure: FIGS. 4A to D are graphical representations showing protection against secondary tumors following cure of primary tumors with PEP005. (A) C57BL/6 mice received 5×10^5 Lewis lung-OVA s.c. on the back on day less 7 (d−7). When these primary tumors had reached an average 13.6 mm^2±1.8 SE (range 10-25 mm^2) on d0 they were treated once with 16 μg of PEP005 delivered i.t. In eight mice these primary tumors were cured, and these mice received 5×10^5 Lewis lung-OVA s.c. on d4 on the opposite flank from the primary tumors. The emergence of these secondary tumors was monitored over time (PEP005 cured). In a parallel group of animals (n=5) PEP005 treatment regressed the primary tumors, but after 11-13 days the primary tumors re-emerged. These animals also received secondary tumors as above and their emergence was again monitored over time (PEP005 regressed). Two control groups were included. One group (n=6) received no primary tumors, but was treated s.c. with PEP005 and received secondary tumors on the opposite flank (white triangles, PEP005 s.c.). […] Secondary B16-OVA (10^5) were injected i.v. on d6 and animals were sacrificed on d27 and lung metastases counted.
# Mouse splenocytes were analyzed by ex vivo IFNγ ELISPOT essentially as described previously (Le et al, Vaccine 19:4669-4675, 2001), but using MultiScreen-IP plates (Millipore) and 25 IU/ml of recombinant human IL-2 (Cetus).
# B16 tumors = assay: Example 2: sub-optimal topical PEP005 combined with M720/B16 vaccination and DC+IL-2, cure of primary B16 tumors; type: in vivo, C57BL/6 mice
# Text: To determine whether PEP005 (ingenol-3-angelate) treatment could synergize with (i) vaccine-induced anti-cancer CD4^+ T-cells/antibodies and/or (ii) DC vaccine-induced anti-cancer CD8^+ T-cells, topical PEP005 treatment was combined with vaccination using (i) B16 lysate emulsified in Montanide ISA 720 adjuvant (M720/B16) and (ii) DC2.4 cells sensitized with TRP-2 peptide, SVYDFFVWL [SEQ ID NO:1] (a dominant CD8^+ T-cell epitope for anti-B16 CM^+ T-cells) and activated with LPS (Camporeale et al, Can Res 63:3688, 2003) (DC). The latter group also received IL-2 to maintain the vaccine induced T-cells. The topical PEP005 dose (10 μg/mouse) was known not to be sufficient to cure most B16 tumors of reasonable size. Thus, this experiment sought to determine whether improvements in B16 cure rate could be achieved when sub-optimal topical PEP005 treatment was combined with other immune-based therapies.
# B16 tumors were injected 2×10^4 s.c. in groups (n=5 per group) of C57BL/6 mice and after 12 days (d0) had reached 8-12 mm^2 in size. The groups of animal received the following treatments:
# PEP005: On d0, the tumors in this group were treated topically with PEP005, 10 μg/mouse in 10 μl isopropanol gel.
# PEP005+M720: On d−5 (day minus 5), the animals had received Montanide ISA 720 adjuvant (M720) emulsified 7:3 v:v (Elliott et al, Vaccine. 17(15-16):2009-2019, 1999) with water (volume 100 μl/mouse s.c.) and on d0, the tumors in this group were treated topically with PEP005.
# PEP005+M720/B16: On d−5, the animals had received Montanide ISA 720 adjuvant (M720) emulsified 7:3 v:v (Elliott et al, 1999 supra) with B16 cell lysate (3×10^5 B16 cells per mouse s.c., volume 100 μl/mouse) and on d0, the tumors in this group were treated topically with PEP005. A modality was known to induce CD4^+ T-cells specific for B16.
# PEP005+M720/B16+DC+IL-2: On d0, the tumors in this group were treated topically with PEP005 and had been given M720/B16 as for Group 4. The group also received on d0 DC in the form of a DC cell line, DC2.4. These cells were (i) sensitized with TRP-2 peptide, SVYDFFVWL [SEQ ID NO:1] […]
compound,measurement,setting,value
"C/C=C(/C)C(=O)O[C@H]1C(C)=C[C@]23C(=O)[C@@H](C=C(CO)[C@@H](O)[C@]12O)[C@H]1[C@@H](C[C@H]3C)C1(C)C [PEP005, ingenol-3-angelate]",number of SIINFEKL-specific CD8+ T-cells vs untreated control animals,[1]; PEP005 injected s.c. rather than into a tumor,failed to increase
same,SIINFEKL-specific CD8+ T-cells vs control animals,"[1]; primary tumors cured by PEP005, p=0.008 unpaired t-Test",significantly more
same,regression of treated tumors,B16 tumors; all PEP005 treated tumors,regressed by treatment to below detectable size
same,day on which tumor became visible again / emerged,"B16 tumors; day (d) after treatment on d0, growth curves FIG. 7",4-5
same,treated tumors re-emerging (failure rate),"B16 tumors; topical 10 μg PEP005, combined PEP005/PEP005+M720 group n=10, tumors 8-12 mm^2",90%
